From patent US20230226040A1, “COMBINATION THERAPY COMPRISING AN FGFR INHIBITOR AND A KRAS INHIBITOR” (Incyte Corporation, priority 2021, published 2023)
Where “and” joins values, the source holds several entries; their conditions need not be identical. Equal values may be shown once.

Assays:
[1] = tested on: H1792; test: 5-day Cell Titer Glo combination matrix, Bliss score; format: cell-based; settings: H1792 (Lung, Mesenchymal), 5 days
Description: (§2) Cells were seeded in RPMI medium with 10% HI FBS at a density of 500 cells/well in Greiner, white, clear bottom, 384-well tissue culture treated plates containing 10×10 combination matrices of compound. Plates were incubated at 37° C., 5% CO2 for 5 days. On day 5, Cell Titer Glo reagent was added to the plates and ATP luminescence was detected using a Pherastar FSX reader. The synergy score for the combination effect was calculated using a Bliss score model where the Bliss score=Yab-(Ya+Yb−(YaYb))×100, where Ya and Yb are the monotherapies. Bliss scores >20 are strongly synergistic and a higher Bliss scores indicates a higher level of synergism.
(§3) Cells were seeded in RPMI medium with 10% HI FBS at a density of 500 cells/well in Greiner, white, clear bottom, 384-well tissue culture treated plates containing 10×10 combination matrices of compound. Plates were incubated at 37° C., 5% CO2 for 5 days. On day 5, Cell Titer Glo reagent was added to the plates and ATP luminescence was detected using a Pherastar FSX reader. Synergy score for the combination effect is calculated using a Bliss score model where the Bliss score=Yab−(Ya+Yb−(YaYb))×100, where Ya and Yb are the monotherapies. Bliss scores >20 are strongly synergistic and a higher Bliss scores indicates a higher level of synergism.
(§4) Cells were seeded in RPMI medium with 10% HI FBS at a density of 500 cells/well in Greiner, white, clear bottom, 384-well tissue culture treated plates containing 10×10 combination matrices of compound. Plates were incubated at 37° C., 5% CO2 for 5 days. On day 5, Cell Titer Glo reagent was added to the plates and ATP luminescence was detected using a Pherastar FSX reader. The synergy score for the combination effect was calculated using a Bliss score model where the Bliss score=Yab−(Ya+Yb−(YaYb))×100, where Ya and Yb are the monotherapies. Bliss scores >20 are strongly synergistic and a higher Bliss scores indicates a higher level of synergism.

[2] = tested on: SW-1573; test: as above; format: cell-based; settings: 5 days
Description: as §2, §3, §4

[3] = tested on: H2122; test: as above; format: cell-based; settings: H2122 (Lung, Epithelial); FGFR inhibitor in combination with MRTX849; 5 days
Description: as §4

[4] = tested on: LU99 lung cancer xenograft; test: LU99 xenograft model, tumor growth inhibition; format: in vivo; settings: NCr nude mice; AMG510 20 mg/kg, pemigatinib 0.3 mg/kg, alone or combined; oral QD, 30 days; last day of treatment
Description: The in vivo effect of combining the FGFR1 inhibitor pemigatinib plus the KRAS G12C inhibitor AMG510 was assessed in the LU99 lung cancer model (JCRB0080, JCRB) xenograft model (FIG. 3) in 6 to 8 week old female NCr nude mice (Taconic). Pemigatinib and AMG510 were suspended in 5% N,N-dimethyl acetamide (DMAC)+50 mM Citrate buffer (pH 3.0) in 0.5% methyl cellulose for oral administration. Briefly, mice were inoculated in the left flank with 1×10^7 LU99 cells re-suspended in a PBS and matrigel (Corning Life Sciences, Tewksbury, Mass) solution at 1:1. On Day 7, mice were randomized into 4 groups of 10 mice at approximate mean volume (˜212 mm^3). […] Tumor growth inhibition was calculated using the formula (1−(VT/VC))×100, where VT is the tumor volume of the treatment group on the last day of treatment, and Vc is the tumor volume of the control group on the last day of treatment. […] Statistics were determined using One-Way ANOVA.
Briefly, mice were inoculated in the left flank with 1×10^7LU99 cells re-suspended in a PBS and matrigel (Corning Life Sciences, Tewksbury, Mass) solution at 1:1. […] TGI was calculated using the formula (1−(VT/VC))×100, where VT is the tumor volume of the treatment group on the last day of treatment, and VC is the tumor volume of the control group on the last day of treatment. […]

[5] = tested on: HCC-44; test: 5-day Cell Titer Glo combination matrix, Bliss score; format: cell-based; settings: HCC44 (Lung, Mesenchymal); FGFR inhibitor in combination with MRTX849; 5 days
Description: as §2, §4

[6] = tested on: MiaPaca2 cells; test: 5-day Cell Titer Glo viability and Bliss score
Description: For synergy experiments, cells were seeded in RPMI medium with 10% HI FBS at a density of 500 cells/well in Greiner, white, clear bottom, 384-well tissue culture treated plates containing 10x10 combination matrices of compound. Plates were incubated at 37° C., 5% CO2 for 5 days. On day 5, Cell Titer Glo reagent was added to the plates and ATP luminescence was detected using a Pherastar FSX reader. The synergy score for the combination effect was calculated using a Bliss score model where the Bliss score=Yab−(Ya+Yb−(YaYb))×100, where Ya and Yb are the monotherapies. Bliss scores >20 are strongly synergistic and a higher Bliss scores indicates a higher level of synergism.

[7] = tested on: MiaPaca2 KRAS G12C resistant clone 7; test: 5-day Cell Titer Glo viability and Bliss score; format: cell-based; settings: 5-day CTG; for % viability, Pemi 1 μM: Pemi alone
Description: (§1) For G12C resistant clone generation, MiaPaca2 parent cells were cultured with increasing concentrations of AMG510 (up to 1μM) over time. The viable cells were re-fed fresh media containing AMG510 weekly. Once the AMG510 resistant cells were growing at normal rates in the presence of 1μM AMG510, they were cloned by limiting dilution. Eight clones were selected for continued passage and further experiments.

[8] = tested on: MiaPaca2 KRAS G12C resistant clone 28; test: 5-day Cell Titer Glo viability and Bliss score; format: cell-based; settings: 5-day CTG
Description: as §1

[9] = tested on: SW-837; test: 5-day Cell Titer Glo combination matrix, Bliss score; format: cell-based; settings: SW837 (CRC, Epithelial); FGFR inhibitor in combination with MRTX849; 5 days
Description: as §2, §4

[10] = Average, G12C i 111 nM + Pemi 1 μM

With `CCN1C(=O)N(c2c(F)c(OC)cc(OC)c2F)Cc2cnc3[nH]c(CN4CCOCC4)cc3c21` [Pemigatinib, 3-(2,6-difluoro-3,5-dimethoxyphenyl)-1-ethyl-8-(morpholin-4-ylmethyl)-1,3,4,7-tetrahydro-2H-pyrrolo[3′,2′:5,6]pyrido[4,3-d]pyrimidin-2-one] the “Avg. Bliss Score” value ([1]; FGFR inhibitor in combination with Cmpd 3) was 24.2, the “Avg. Bliss Score” value ([1]; FGFR inhibitor in combination with MRTX849) was 19.9 and the “Avg. Bliss Score” value ([2]; SW1573 (Lung, Mesenchymal), FGFR inhibitor in combination with MRTX849) was 29.5. For the same compound, the “Avg. Bliss Score” value ([2]; SW-1573 (Lung, Mesenchymal), FGFR inhibitor in combination with Cmpd 3) was 19.3, the “Avg. Bliss Score” value [3] was 4.5 and the “TGI (tumor growth inhibition)” value [4] was 63%. For the same compound, the “Avg. Bliss Score” value [5] was 11.6, the “BLISS Score” value ([6]; MIA PaCa2, Pemi 12 nM + KRAS G12C i 0.15 nM, 5 day CTG) was −16.39 and the “BLISS Score” value ([6]; MIA PaCa2, Pemi 12 nM + KRAS G12C i 0.46 nM, 5 day CTG) was −9.92. For the same compound, the “BLISS Score” value ([6]; MIA PaCa2, Pemi 12 nM + KRAS G12C i 1.37 nM, 5 day CTG) was −4.50, the “BLISS Score” value ([6]; MIA PaCa2, Pemi 12 nM + KRAS G12C i 4.12 nM, 5 day CTG) was −1.78 and the “BLISS Score” value ([6]; MIA PaCa2, Pemi 12 nM + KRAS G12C i 12.35 nM, 5 day CTG) was −1.91. The “BLISS Score” value ([6]; MIA PaCa2, Pemi 12 nM + KRAS G12C i 37.04 nM, 5 day CTG) was 1.33, the “BLISS Score” value ([6]; MIA PaCa2, Pemi 12 nM + KRAS G12C i 111.11 nM, 5 day CTG) was 0.06 and the “BLISS Score” value ([6]; MIA PaCa2, Pemi 12 nM + KRAS G12C i 333.33 nM, 5 day CTG) was 0.73. The “BLISS Score” value ([6]; MIA PaCa2, Pemi 12 nM + KRAS G12C i 1000.00 nM, 5 day CTG) was 0.29, the “BLISS Score” value ([6]; MIA PaCa2, Pemi 37 nM + KRAS G12C i 0.15 nM, 5 day CTG) was −13.53 and the “BLISS Score” value ([6]; MIA PaCa2, Pemi 37 nM + KRAS G12C i 0.46 nM, 5 day CTG) was −5.08. The “BLISS Score” value ([6]; MIA PaCa2, Pemi 37 nM + KRAS G12C i 1.37 nM, 5 day CTG) was 6.72, the “BLISS Score” value ([6]; MIA PaCa2, Pemi 37 nM + KRAS G12C i 4.12 nM, 5 day CTG) was 4.25 and the “BLISS Score” value ([6]; MIA PaCa2, Pemi 37 nM + KRAS G12C i 12.35 nM, 5 day CTG) was 3.06. The “BLISS Score” value ([6]; MIA PaCa2, Pemi 37 nM + KRAS G12C i 37.04 nM, 5 day CTG) was 5.01, the “BLISS Score” value ([6]; MIA PaCa2, Pemi 37 nM + KRAS G12C i 111.11 nM, 5 day CTG) was 3.10 and the “BLISS Score” value ([6]; MIA PaCa2, Pemi 37 nM + KRAS G12C i 333.33 nM, 5 day CTG) was 2.88. For the same compound, the “BLISS Score” value ([6]; MIA PaCa2, Pemi 37 nM + KRAS G12C i 1000.00 nM, 5 day CTG) was 2.69, the “BLISS Score” value ([6]; MIA PaCa2, Pemi 111 nM + KRAS G12C i 0.15 nM, 5 day CTG) was −10.62 and the “BLISS Score” value ([6]; MIA PaCa2, Pemi 111 nM + KRAS G12C i 0.46 nM, 5 day CTG) was −7.15. The “BLISS Score” value ([6]; MIA PaCa2, Pemi 111 nM + KRAS G12C i 1.37 nM, 5 day CTG) was 9.38, the “BLISS Score” value ([6]; MIA PaCa2, Pemi 111 nM + KRAS G12C i 4.12 nM, 5 day CTG) was 4.70 and the “BLISS Score” value ([6]; MIA PaCa2, Pemi 111 nM + KRAS G12C i 12.35 nM, 5 day CTG) was 4.83. For the same compound, the “BLISS Score” value ([6]; MIA PaCa2, Pemi 111 nM + KRAS G12C i 37.04 nM, 5 day CTG) was 6.56, the “BLISS Score” value ([6]; MIA PaCa2, Pemi 111 nM + KRAS G12C i 111.11 nM, 5 day CTG) was 4.31 and the “BLISS Score” value ([6]; MIA PaCa2, Pemi 111 nM + KRAS G12C i 333.33 nM, 5 day CTG) was 3.66. The “BLISS Score” value ([6]; MIA PaCa2, Pemi 111 nM + KRAS G12C i 1000.00 nM, 5 day CTG) was 4.56, the “BLISS Score” value ([6]; MIA PaCa2, Pemi 333 nM + KRAS G12C i 0.15 nM, 5 day CTG) was −12.96 and the “BLISS Score” value ([6]; MIA PaCa2, Pemi 333 nM + KRAS G12C i 0.46 nM, 5 day CTG) was −5.77. The “BLISS Score” value ([6]; MIA PaCa2, Pemi 333 nM + KRAS G12C i 1.37 nM, 5 day CTG) was 11.10, the “BLISS Score” value ([6]; MIA PaCa2, Pemi 333 nM + KRAS G12C i 4.12 nM, 5 day CTG) was 7.47 and the “BLISS Score” value ([6]; MIA PaCa2, Pemi 333 nM + KRAS G12C i 12.35 nM, 5 day CTG) was 3.76. For the same compound, the “BLISS Score” value ([6]; MIA PaCa2, Pemi 333 nM + KRAS G12C i 37.04 nM, 5 day CTG) was 6.27, the “BLISS Score” value ([6]; MIA PaCa2, Pemi 333 nM + KRAS G12C i 111.11 nM, 5 day CTG) was 4.88 and the “BLISS Score” value ([6]; MIA PaCa2, Pemi 333 nM + KRAS G12C i 333.33 nM, 5 day CTG) was 3.97. The “BLISS Score” value ([6]; MIA PaCa2, Pemi 333 nM + KRAS G12C i 1000.00 nM, 5 day CTG) was 2.38, the “BLISS Score” value ([6]; MIA PaCa2, Pemi 1000 nM + KRAS G12C i 0.15 nM, 5 day CTG) was −10.95 and the “BLISS Score” value ([6]; MIA PaCa2, Pemi 1000 nM + KRAS G12C i 0.46 nM, 5 day CTG) was −5.74. The “BLISS Score” value ([6]; MIA PaCa2, Pemi 1000 nM + KRAS G12C i 1.37 nM, 5 day CTG) was 3.46, the “BLISS Score” value ([6]; MIA PaCa2, Pemi 1000 nM + KRAS G12C i 4.12 nM, 5 day CTG) was 6.59 and the “BLISS Score” value ([6]; MIA PaCa2, Pemi 1000 nM + KRAS G12C i 12.35 nM, 5 day CTG) was 2.84. For the same compound, the “BLISS Score” value ([6]; MIA PaCa2, Pemi 1000 nM + KRAS G12C i 37.04 nM, 5 day CTG) was 4.32, the “BLISS Score” value ([6]; MIA PaCa2, Pemi 1000 nM + KRAS G12C i 111.11 nM, 5 day CTG) was 4.62 and the “BLISS Score” value ([6]; MIA PaCa2, Pemi 1000 nM + KRAS G12C i 333.33 nM, 5 day CTG) was 3.71. The “BLISS Score” value ([6]; MIA PaCa2, Pemi 1000 nM + KRAS G12C i 1000.00 nM, 5 day CTG) was 4.32, the “BLISS Score” value ([6]; MIAPACA2, Average, G12C i 111 nM + Pemi 1 μM, 5-day CTG) was 6.3 and the “BLISS Score” value ([6]; MIAPACA2, G12C i 111 nM + Pemi 1 μM, 5-day CTG, single experiments) was 8.8 and 5.6 and 4.6. The “% viability, Together” value [7, 10] was 54.6%, the “BLISS Score” value [7, 10] was 15.0 and the “% viability, Pemi 1 μM” value ([7]; Average) was 101.1%. The “% viability, Together” value ([7]; G12C i 111 nM + Pemi 1 μM, single experiments) was 63% and 53% and 47.7%, the “% viability, Pemi 1 μM” value ([7]; single experiments) was 104% and 106% and 93.4% and the “% viability, Together” value ([8]; G12C i 111 nM + Pemi 1 μM) was 32.4%. The “BLISS Score” value ([8]; G12C i 111 nM + Pemi 1 μM) was 21.8, the “% viability, Pemi 1 μM” value ([8]; Pemi alone) was 78% and the “Avg. Bliss Score” value [9] was 6.1.
